Laboratory results taken from ChEMBL document CHEMBL5212743, “Selectivity Literature for EUbOPEN Chemogenomics Library wave 3” (2023).

Experiments:
[1] = tested on: T1, Receptor-type tyrosine-protein kinase FLT3 (Homo sapiens), P36888 [D835V]; assay: Selectivity interaction (KinomeScan (DiscoverX)) EUB0000305b FLT3; details: at 100 nM
T1 sequence (whole entry): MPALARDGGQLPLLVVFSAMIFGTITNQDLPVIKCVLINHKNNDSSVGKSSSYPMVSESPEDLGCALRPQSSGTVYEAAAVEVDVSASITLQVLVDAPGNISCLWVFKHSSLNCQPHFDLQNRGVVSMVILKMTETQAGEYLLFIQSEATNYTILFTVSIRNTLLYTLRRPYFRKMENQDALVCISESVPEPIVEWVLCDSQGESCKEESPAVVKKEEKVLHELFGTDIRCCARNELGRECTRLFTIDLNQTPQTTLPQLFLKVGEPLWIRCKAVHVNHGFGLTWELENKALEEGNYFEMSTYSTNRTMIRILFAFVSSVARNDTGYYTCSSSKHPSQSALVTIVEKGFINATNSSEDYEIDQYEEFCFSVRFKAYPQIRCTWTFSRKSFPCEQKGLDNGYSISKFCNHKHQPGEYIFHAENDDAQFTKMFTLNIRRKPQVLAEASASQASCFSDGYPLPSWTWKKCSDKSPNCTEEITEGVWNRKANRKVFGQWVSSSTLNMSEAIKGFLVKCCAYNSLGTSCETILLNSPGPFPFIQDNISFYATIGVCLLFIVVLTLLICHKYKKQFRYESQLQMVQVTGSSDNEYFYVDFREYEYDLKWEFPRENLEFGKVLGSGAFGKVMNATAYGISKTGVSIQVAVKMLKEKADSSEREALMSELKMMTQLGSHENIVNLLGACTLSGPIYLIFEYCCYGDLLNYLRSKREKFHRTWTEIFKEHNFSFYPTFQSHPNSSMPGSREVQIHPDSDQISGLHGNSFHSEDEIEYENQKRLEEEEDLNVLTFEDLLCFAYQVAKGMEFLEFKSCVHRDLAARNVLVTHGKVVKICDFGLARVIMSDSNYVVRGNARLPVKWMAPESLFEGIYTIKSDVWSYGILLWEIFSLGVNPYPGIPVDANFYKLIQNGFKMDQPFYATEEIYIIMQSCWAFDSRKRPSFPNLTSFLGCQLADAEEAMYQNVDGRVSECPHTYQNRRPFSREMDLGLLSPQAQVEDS

[2] = target: Platelet-derived growth factor receptor beta (Homo sapiens, UniProt P09619); details: at 1 µM
[3] = target: Macrophage colony-stimulating factor 1 receptor (Homo sapiens) (UniProt P07333); details: at 1 µM
[4] = target: Ribosomal protein S6 kinase alpha-4 (Homo sapiens) (UniProt O75676); assay: Selectivity interaction (KinomeScan (DiscoverX)) EUB0000169b RPS6KA4; details: at 1 µM
[5] = tested on: Tyrosine-protein kinase ABL1 (Homo sapiens), P00519 [M351T]; assay: (§1) Selectivity interaction (KinomeScan (DiscoverX)) EUB0000178b ABL1; details: at 1 µM
[6] = tested on: Tyrosine-protein kinase ABL1 (Homo sapiens), P00519 [Q252H]; assay: as §1; details: at 1 µM
[7] = tested on: Tyrosine-protein kinase ABL1 (Homo sapiens), P00519 [T315I]; assay: as §1; details: at 1 µM
[8] = target: Aurora kinase A (Homo sapiens) (UniProt O14965); assay: Selectivity interaction (KinomeScan (DiscoverX)) EUB0000178b STK6; details: at 1 µM
[9] = target: T2, Ephrin type-B receptor 6 (Homo sapiens) (UniProt O15197); assay: Selectivity interaction (KinomeScan (DiscoverX)) EUB0000698a EPHB6; details: at 10 µM
T2 sequence (whole entry): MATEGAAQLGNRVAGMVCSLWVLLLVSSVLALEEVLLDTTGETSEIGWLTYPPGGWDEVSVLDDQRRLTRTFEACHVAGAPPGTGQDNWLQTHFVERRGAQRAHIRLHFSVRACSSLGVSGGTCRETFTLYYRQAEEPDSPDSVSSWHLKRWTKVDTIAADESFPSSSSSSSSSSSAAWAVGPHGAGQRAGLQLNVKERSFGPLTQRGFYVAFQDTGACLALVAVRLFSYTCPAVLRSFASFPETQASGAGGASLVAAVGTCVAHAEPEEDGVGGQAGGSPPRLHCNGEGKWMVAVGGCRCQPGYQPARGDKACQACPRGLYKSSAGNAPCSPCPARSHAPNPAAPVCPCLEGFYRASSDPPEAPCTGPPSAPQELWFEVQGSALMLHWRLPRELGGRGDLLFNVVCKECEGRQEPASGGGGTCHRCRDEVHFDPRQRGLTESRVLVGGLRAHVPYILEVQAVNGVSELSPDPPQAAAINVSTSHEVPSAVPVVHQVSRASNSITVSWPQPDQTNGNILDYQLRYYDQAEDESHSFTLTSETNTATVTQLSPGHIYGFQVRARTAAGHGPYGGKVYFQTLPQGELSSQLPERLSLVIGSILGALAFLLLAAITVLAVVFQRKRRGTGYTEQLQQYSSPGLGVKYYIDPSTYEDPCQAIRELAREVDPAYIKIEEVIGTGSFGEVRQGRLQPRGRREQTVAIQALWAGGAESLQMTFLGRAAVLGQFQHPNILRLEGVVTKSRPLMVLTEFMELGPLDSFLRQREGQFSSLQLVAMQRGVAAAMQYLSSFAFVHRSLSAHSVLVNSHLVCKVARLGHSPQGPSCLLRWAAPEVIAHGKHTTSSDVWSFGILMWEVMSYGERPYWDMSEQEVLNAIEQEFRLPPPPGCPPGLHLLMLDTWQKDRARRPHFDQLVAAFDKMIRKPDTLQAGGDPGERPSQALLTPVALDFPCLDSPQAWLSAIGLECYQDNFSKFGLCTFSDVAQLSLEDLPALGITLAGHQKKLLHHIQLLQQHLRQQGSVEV

[10] = target: T3, Phosphatidylinositol 5-phosphate 4-kinase type-2 beta (Homo sapiens) (UniProt P78356); assay: Selectivity interaction (KinomeScan (DiscoverX)) EUB0000698a PIP4K2B; details: at 10 µM
T3 sequence (whole entry): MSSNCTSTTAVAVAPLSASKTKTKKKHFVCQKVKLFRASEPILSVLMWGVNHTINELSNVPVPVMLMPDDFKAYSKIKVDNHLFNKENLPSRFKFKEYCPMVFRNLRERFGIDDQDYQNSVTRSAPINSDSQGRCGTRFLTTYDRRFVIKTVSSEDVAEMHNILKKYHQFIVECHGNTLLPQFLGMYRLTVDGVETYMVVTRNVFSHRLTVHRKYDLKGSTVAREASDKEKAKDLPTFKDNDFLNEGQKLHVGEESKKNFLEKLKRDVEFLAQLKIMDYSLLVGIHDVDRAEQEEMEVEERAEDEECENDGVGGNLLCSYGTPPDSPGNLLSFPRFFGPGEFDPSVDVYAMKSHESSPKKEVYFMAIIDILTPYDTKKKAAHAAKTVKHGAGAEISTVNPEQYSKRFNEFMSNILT

[11] = target: Serine/threonine-protein kinase RIO3 (Homo sapiens) (UniProt O14730); assay: Selectivity interaction (KinomeScan (DiscoverX)) EUB0000698a RIOK3; details: at 10 µM
Chain of Serine/threonine-protein kinase RIO3 (Homo sapiens) (O14730 whole entry): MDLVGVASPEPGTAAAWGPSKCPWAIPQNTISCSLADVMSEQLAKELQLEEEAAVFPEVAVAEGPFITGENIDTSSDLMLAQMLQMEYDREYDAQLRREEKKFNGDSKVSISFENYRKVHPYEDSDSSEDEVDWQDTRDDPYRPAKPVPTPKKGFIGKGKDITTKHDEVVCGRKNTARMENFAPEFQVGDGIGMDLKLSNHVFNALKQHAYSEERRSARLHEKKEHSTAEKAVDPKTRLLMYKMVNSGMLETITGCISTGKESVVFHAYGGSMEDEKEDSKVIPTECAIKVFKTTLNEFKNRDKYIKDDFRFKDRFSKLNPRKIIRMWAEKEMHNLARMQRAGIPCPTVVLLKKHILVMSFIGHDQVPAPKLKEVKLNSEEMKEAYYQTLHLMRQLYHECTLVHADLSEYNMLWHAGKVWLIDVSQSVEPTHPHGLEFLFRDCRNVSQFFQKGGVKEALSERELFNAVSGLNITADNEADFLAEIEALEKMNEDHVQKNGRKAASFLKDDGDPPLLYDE

Chain of Ribosomal protein S6 kinase alpha-4 (Homo sapiens) (O75676 whole entry, looked up): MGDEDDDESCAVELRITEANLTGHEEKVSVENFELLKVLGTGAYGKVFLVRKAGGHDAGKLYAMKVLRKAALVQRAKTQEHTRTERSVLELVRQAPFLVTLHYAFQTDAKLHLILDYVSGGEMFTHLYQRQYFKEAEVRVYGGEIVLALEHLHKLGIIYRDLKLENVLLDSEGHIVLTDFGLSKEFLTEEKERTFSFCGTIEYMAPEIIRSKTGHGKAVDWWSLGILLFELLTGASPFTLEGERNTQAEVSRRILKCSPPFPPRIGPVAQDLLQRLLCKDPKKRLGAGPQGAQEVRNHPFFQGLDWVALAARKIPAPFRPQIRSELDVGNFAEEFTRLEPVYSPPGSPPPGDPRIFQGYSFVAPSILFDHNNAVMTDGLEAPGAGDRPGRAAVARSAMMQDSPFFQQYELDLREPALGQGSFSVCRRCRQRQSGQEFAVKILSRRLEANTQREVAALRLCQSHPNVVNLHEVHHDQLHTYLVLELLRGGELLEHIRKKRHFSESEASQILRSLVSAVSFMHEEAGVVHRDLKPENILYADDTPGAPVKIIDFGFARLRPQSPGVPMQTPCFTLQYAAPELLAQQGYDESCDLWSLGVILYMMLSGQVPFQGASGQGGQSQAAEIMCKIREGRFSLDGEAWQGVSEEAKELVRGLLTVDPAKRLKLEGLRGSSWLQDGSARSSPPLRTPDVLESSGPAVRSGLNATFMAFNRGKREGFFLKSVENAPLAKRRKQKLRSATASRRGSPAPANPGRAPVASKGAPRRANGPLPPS
Chain of Aurora kinase A (Homo sapiens) (O14965 whole entry): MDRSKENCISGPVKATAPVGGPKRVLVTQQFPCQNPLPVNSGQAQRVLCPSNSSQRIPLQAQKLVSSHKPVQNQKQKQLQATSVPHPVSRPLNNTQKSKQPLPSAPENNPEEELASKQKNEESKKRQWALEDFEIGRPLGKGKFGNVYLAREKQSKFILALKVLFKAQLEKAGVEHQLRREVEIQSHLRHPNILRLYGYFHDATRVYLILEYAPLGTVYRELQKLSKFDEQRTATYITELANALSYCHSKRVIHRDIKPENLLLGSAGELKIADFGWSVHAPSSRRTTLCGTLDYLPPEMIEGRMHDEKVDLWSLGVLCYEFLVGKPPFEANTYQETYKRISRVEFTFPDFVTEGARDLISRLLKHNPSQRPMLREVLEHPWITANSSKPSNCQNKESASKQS
Chain of Platelet-derived growth factor receptor beta (P09619 whole entry): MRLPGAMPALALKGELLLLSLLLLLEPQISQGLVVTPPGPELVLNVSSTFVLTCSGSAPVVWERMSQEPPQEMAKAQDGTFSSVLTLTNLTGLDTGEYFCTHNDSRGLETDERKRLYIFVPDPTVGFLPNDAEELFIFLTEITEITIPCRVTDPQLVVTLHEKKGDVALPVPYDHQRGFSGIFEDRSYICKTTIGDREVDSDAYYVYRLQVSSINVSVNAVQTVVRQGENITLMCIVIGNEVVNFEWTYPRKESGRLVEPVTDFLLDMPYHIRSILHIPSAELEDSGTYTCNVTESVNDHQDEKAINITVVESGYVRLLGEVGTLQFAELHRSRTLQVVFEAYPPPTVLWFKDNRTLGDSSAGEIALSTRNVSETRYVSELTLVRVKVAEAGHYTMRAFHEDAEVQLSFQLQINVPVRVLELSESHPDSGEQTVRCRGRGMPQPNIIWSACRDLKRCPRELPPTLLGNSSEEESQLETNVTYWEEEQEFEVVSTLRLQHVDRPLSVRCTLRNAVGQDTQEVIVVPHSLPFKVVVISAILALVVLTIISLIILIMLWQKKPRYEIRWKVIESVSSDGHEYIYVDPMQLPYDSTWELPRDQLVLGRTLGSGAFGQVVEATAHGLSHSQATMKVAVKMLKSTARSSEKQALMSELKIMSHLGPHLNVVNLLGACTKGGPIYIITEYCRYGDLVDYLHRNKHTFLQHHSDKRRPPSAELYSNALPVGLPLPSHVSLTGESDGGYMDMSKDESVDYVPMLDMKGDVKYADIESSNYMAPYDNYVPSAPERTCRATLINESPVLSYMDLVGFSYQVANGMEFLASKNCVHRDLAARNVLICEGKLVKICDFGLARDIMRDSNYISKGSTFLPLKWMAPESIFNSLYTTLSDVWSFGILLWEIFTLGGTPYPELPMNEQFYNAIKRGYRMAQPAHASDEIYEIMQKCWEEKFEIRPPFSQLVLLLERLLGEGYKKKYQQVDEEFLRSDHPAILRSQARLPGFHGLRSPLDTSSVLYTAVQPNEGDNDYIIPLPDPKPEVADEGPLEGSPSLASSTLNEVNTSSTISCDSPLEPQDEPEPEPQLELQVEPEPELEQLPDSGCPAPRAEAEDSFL
Chain of Macrophage colony-stimulating factor 1 receptor (Homo sapiens) (P07333 whole entry): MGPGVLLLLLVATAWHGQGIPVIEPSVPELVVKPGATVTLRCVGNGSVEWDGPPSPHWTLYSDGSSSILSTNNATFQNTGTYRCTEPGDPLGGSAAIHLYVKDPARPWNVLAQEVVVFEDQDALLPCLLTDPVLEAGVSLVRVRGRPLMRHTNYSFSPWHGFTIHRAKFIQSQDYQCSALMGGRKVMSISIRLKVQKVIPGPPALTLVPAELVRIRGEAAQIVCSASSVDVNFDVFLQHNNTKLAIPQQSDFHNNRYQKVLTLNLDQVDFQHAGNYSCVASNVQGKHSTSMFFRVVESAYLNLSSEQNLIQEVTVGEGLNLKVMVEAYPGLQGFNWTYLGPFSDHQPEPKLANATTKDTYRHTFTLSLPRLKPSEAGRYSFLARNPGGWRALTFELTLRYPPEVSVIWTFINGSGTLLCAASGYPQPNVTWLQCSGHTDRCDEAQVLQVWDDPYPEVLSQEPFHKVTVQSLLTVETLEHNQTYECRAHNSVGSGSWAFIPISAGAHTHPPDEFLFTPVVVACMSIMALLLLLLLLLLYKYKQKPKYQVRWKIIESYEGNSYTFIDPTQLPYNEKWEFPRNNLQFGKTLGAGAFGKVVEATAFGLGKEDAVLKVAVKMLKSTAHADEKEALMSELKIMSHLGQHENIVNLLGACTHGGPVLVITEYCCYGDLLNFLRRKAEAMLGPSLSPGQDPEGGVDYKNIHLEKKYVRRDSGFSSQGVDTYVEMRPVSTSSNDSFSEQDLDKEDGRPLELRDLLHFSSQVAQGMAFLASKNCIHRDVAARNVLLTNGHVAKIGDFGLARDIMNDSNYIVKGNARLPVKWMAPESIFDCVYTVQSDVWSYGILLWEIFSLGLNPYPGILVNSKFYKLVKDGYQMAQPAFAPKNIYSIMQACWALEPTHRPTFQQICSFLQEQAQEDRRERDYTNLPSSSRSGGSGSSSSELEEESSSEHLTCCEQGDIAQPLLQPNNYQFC

For `C[C@H](c1ccnc(Nc2nc3ccc(-c4cc(N(C)C)ncn4)cc3[nH]2)c1)N1CCN(C(=O)CC(F)(F)F)CC1` [BAY-985], the % of control [1] was 32%.

With `CCOc1cn(-c2ccc(F)cc2C)nc1C(=O)Nc1ccc(Oc2ccnc3cc(OC)c(OC)cc23)c(F)c1` the % of control [2] was < 10% and the % of control [3] was < 10%.

With `CC[C@@H]1C(=O)N(C)c2cnc(Nc3ccc(C(=O)NC4CCN(C)CC4)cc3OC)nc2N1C1CCCC1` the % of control [4] was 0.3%.

With `CN1C(=O)c2sccc2N(C)c2nc(Nc3ccc(S(N)(=O)=O)cc3)ncc21` the % of control [5] was 5.5%, the % of control [6] was 6.8% and the % of control [7] was 1.6%. It also gave a % of control [8] of 0.05%.

With `COc1cc2ncn(-c3cc(OCc4ccccc4C(F)(F)F)c(C(N)=O)s3)c2cc1OC` [GW843682X] the % of control [9] was 9.9%, the % of control [10] was 6.6% and the % of control [11] was 4.2%.
